Like-named read-outs stand apart in the source and are kept apart here. One block for each molecule: values may come before it.
Assays:
[1] = test system: H9c2 cells; assay: Cytotoxicity on H9c2 cells (CCK-8); assay type: cell-based, rat; settings: H9c2 cells, n=3
Experimental: (§1) Rat myocardial H9c2 cells (purchased from China Infrastructure of Cell Line Resources, Institute of Basic Medical Sciences, Chinese Academy of Medical Sciences) were cultured in DMEM supplemented with 10% fetal bovine serum (FBS), Penicillin (100 U/mL), and Streptomycin (100 μg/mL) at 37 °C under a humidified atmosphere of 5% CO2 and 95% air. For OGD/R treatment, H9c2 cells were cultured in glucose-free DMEM under hypoxic conditions (95%N2 + 5%CO2) for 4 h at 37 °C followed by complete medium under normal conditions with air (95%) and CO2 (5%) for 2 h. A control group was maintained under normal culture conditions (with glucose-containing DMEM and 5% CO2) without undergoing OGD/R treatment. CCK8 was used to assess cell viability. After treatment, H9c2 cells were seeded in 96-well plates, with each well supplemented with 10 μL of CCK-8 solution and then incubated for 1 h. Finally, the absorbance at 450 nm was detected by a microplate reader (Model […] 200 PRO, TECAN, Grodig, Austria).
When evaluating the cytotoxicities of the absorbed compounds, the H9c2 cells were seeded in 96-well plates at a density of 1 × 10^4 cells/well; when cells reached 80% confluence, […] Afterward, the protective effects were verified by assessing the cell viability when treating with different concentrations (1, 10, 25, 50, and 100 μM) of the analytes prior to OGD/R treatment.

[2] = test system: OGD/R-induced H9c2 cells; assay: Protective effect on OGD/R-induced H9c2 cells (CCK-8 cell viability); assay type: cell-based, rat; settings: for H9c2 cell survival after OGD/R (in words): 1, 10, 25, 50 and 100 μM prior to OGD/R, vs model group
Experimental: as §1
When evaluating the cytotoxicities of the absorbed compounds, the H9c2 cells were seeded in 96-well plates at a density of 1 × 10^4 cells/well; when cells reached 80% confluence, they were treated with 25 and 50 μM of the 24 analytes to screen the non-toxic concentration ranges. Afterward, the protective effects were verified by assessing the cell viability when treating with different concentrations (1, 10, 25, 50, and 100 μM) of the analytes prior to OGD/R treatment.

[3] = rat, in vivo
Experimental: (§2) Ion source parameters were set as follows: temperatures of drying gas and sheath gas were 300 °C and 300 °C, flow rates of drying gas and sheath gas were 7 L/min and 11 L/min, the nebulizer was set at 35 psig, capillary voltage was 3500 V (−), and nozzle voltage was 2000 V (−). […] Chromatographic separations were conducted on a ZORBAX Eclipse Plus C18 column (3.0 × 50 mm, 1.8 μm, Agilent Technologies, California, USA). The mobile phase was composed of 0.1% aqueous FA (A, (v/v)) and 0.1% formic acid methanol (B), the flow rate was set at 0.5 mL/min, and the column oven was maintained at 40 °C.
(§3) Protein precipitation was carried out for each time point for plasma samples, calibration samples, or QC samples by introducing four volumes of acetonitrile containing 400 ng/mL of icariin. Then, 10 μL 10% aqueous ascorbic acid (v/v) was spiked into each sample to prevent the oxidation of phenolic compounds. […] An aliquot (450 μL) of the supernatant was transferred and dried under nitrogen vacuum.
(§4) The pharmacokinetic parameters were calculated by DAS software (version 2.0) for a non-compartmental analysis.

[4] = Concentrations of 24 analytes in QSG treated plasma (Table S5); settings: Sprague Dawley, rat, plasma, oral, 7 g/kg
[5] = Pharmacokinetic study in rats after oral administration of QSG; settings: for AUC(0-inf): AUC0→∞
Experimental: as §2, §3, §4

[6] = Sprague Dawley, rat, plasma, po, 7 g/kg

SMILES: O=c1cc(-c2ccc(O)c(O)c2)oc2cc(O[C@@H]3O[C@H](CO)[C@@H](O)[C@H](O)[C@H]3O)cc(O)c12 [Luteoloside]
Inhibition rate ([1]; 25 μM): -4.2 ± 4.7% | Inhibition rate ([1]; 50 μM): 8.1 ± 5.7% | Inhibition rate ([1]; 100 μM): 4.1 ± 1.7% | H9c2 cell survival after OGD/R (in words) [2]: significantly improve H9c2 cell survival rates | Oral relative bioavailability [3]: 0.019% | AUC0→∞ ([3]; po): 20.86 ng·h/mL | Shape of the plasma concentration–time curve (in words) ([3]; po): Double peaks | AUC0→t ([3]; po, 7 g/kg): 12.39 ± 2.708 ng·h/mL | AUC0→∞ ([3]; po, 7 g/kg): 20.86 ± 6.586 ng·h/mL | T1/2 ([3]; po, 7 g/kg): 21.76 ± 16.85 h

concentration at 0.08 h [4]: 0.74 ± 0.932 ng/mL | concentration at 0.17 h [4]: 2.81 ± 1.24 ng/mL | concentration at 0.5 h [4]: 4.23 ± 0.976 ng/mL | concentration at 1 h [4]: 2.77 ± 1.06 ng/mL | concentration at 2 h [4]: 1.45 ± 0.436 ng/mL | concentration at 4 h [4]: 1.03 ± 0.395 ng/mL | concentration at 8 h [4]: 0.656 ± 0.349 ng/mL | concentration at 12 h [4]: 0.289 ± 0.213 ng/mL | AUC [5, 6]: 27.7 ng·h/mL | AUC(0-t) [5, 6]: 18.5 ± 5.01 ng·h/mL | Cmax [5, 6]: 4.31 ± 0.952 ng/mL | MRT [5, 6]: 6.79 ± 4.77 h | Tmax [5, 6]: 0.516 ± 0.15 h | half-life [5, 6]: 10.9 ± 9.19 h | AUC(0-inf) ([5]; Sprague Dawley, rat, plasma, po, 7 g/kg, Table S12, rats, oral QSG): 27.7 ng·h/mL | AUC(0-inf) ([5]; Sprague Dawley, rat, plasma, po, 7 g/kg, rat plasma, single oral 7 g/kg QSG, n = 6): 27.7 ± 12.2 ng·h/mL | Oral relative bioavailability ([5]; exposure level (AUC0→∞) compared with the dosage of each compound in QSG): 0.033%
SMILES: COc1ccc(-c2coc3cc(O)ccc3c2=O)cc1 [Formononetin]
inhibition at 25 µM ([1]; Rattus norvegicus, 25 μM, read-out: Inhibition rate): 10.7 ± 4.5% | inhibition at 50 µM ([1]; Rattus norvegicus, 50 μM, read-out: Inhibition rate): 10.8 ± 5.2% | inhibition at 100 µM ([1]; Rattus norvegicus, 100 μM, read-out: Inhibition rate): 13.5 ± 2.2% | H9c2 cell survival after OGD/R (in words) [2]: significantly improve H9c2 cell survival rates | EC50 ([2]; Rattus norvegicus, protective effect against OGD/R injury, H9c2 cell viability): 65 µM | Protective effects on OGD/R-induced H9c2 cells (in words) ([2]; at 50 and 100 μM): significant protective effects

Source: publication PMC12567096, “An Efficacy- and In Vivo Exposure-Oriented Integrated Study to Investigate the Effective Components of Qishen Granule” (Pharmaceuticals, 2025)
